Experimental data taken from PubChem BioAssay (NCI).
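Exposure lasted 48 hours, with cells grown in 96-well plates and compounds tested at five concentrations. TGI is the concentration that stops growth completely.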

Legend:
Assay in all cases: NCI tumour cell line growth inhibition, 48 h
[1] = tested on: BT-549 breast
[2] = tested on: HCC-2998 colon
[3] = tested on: HOP-92 NSCLC
[4] = tested on: NCI-H226 lung
[5] = tested on: NCI-H23 lung
[6] = tested on: SF-268 CNS
[7] = tested on: SK-OV-3 ovarian
[8] = tested on: T-47D breast
[9] = tested on: UACC-62 melanoma
[10] = tested on: RXF 393 renal

Structure (SMILES)	TGI [1]	TGI [2]	TGI [3]	TGI [4]	TGI [5]	TGI [6]	TGI [7]	TGI [8]	TGI [9]	TGI [10]
O=C1NCCN1/N=C/c1c(Cl)n(-c2ccccc2)c2ccccc12	35.9 µM	36.2 µM	49.7 µM	54 µM	44.8 µM	59 µM	> 100 µM	41 µM	41.5 µM	–
COc1ccc(C2=N/C(=C\c3ccccc3)C(=O)O2)cc1	–	> 100 µM	> 100 µM	98.1 µM	–	> 100 µM	> 100 µM	–	–	> 100 µM
OCCc1ccsc1-c1sc(-c2cc(CCO)c(-c3sccc3CCO)s2)cc1CCO	20.3 µM	30.2 µM	32.6 µM	–	41 µM	14 µM	35.8 µM	–	25.4 µM	9.05 µM
CCN(CC)/C(SCc1ccccc1)=C(\C(Cl)=C(Cl)Cl)[N+](=O)[O-]	–	47.7 µM	–	39.1 µM	49.6 µM	46.6 µM	> 100 µM	86.7 µM	18.1 µM	26.6 µM
COP(=O)(/C=C/c1cc(C(=O)OCc2ccccc2)n(S(=O)(=O)c2ccccc2)c1)OC	> 100 µM	> 100 µM	–	–	> 100 µM	> 100 µM	> 100 µM	> 100 µM	> 100 µM	> 100 µM
CCN(CC)CCN(C(=Nc1ccccc1)N1CCOCC1)c1ccccc1	> 100 µM	> 100 µM	–	> 100 µM	> 100 µM	> 100 µM	> 100 µM	> 100 µM	> 100 µM	> 100 µM
CC1CCC(C(=O)O)(C(Br)C(=O)O)CC1 (stereo not drawn)	> 100 µM	–	> 100 µM	> 100 µM	> 100 µM	–	–	–	> 100 µM	> 100 µM
CCCCCCOc1ccc(C(=O)NOC)cc1	> 100 µM	> 100 µM	> 100 µM	> 100 µM	> 100 µM	> 100 µM	> 100 µM	–	> 100 µM	> 100 µM
Cc1cccc2c1CC1(C2)Cc2c(C)cccc2C1=O (stereo not drawn)	–	65.1 µM	41.9 µM	61 µM	> 100 µM	87.1 µM	> 100 µM	> 100 µM	–	38.1 µM
CN(C)c1ccc(S(=O)Nc2ccccc2)cc1 (stereo not drawn)	28.9 µM	> 100 µM	–	> 100 µM	> 100 µM	> 100 µM	–	65.6 µM	81.6 µM	–
CS(=O)(=O)OCC(CCl)(CCl)CCl	–	> 100 µM	> 100 µM	> 100 µM	> 100 µM	> 100 µM	> 100 µM	> 100 µM	–	> 100 µM
CSC(=S)N/N=C(\C)c1ccc(S(=O)(=O)N(C)c2ccccc2)cc1	–	> 100 µM	> 100 µM	> 100 µM	> 100 µM	> 100 µM	> 100 µM	> 100 µM	> 100 µM	> 100 µM
COc1cccc(CCCNC(=O)Cc2cc(OC)c(OC)cc2CO)c1	> 100 µM	> 100 µM	> 100 µM	> 100 µM	> 100 µM	–	–	> 100 µM	> 100 µM	–
CCCSCC(P(=O)(O)O)P(=O)(O)O	–	> 100 µM	> 100 µM	> 100 µM	> 100 µM	> 100 µM	> 100 µM	–	> 100 µM	> 100 µM
Cc1cc(N(CCOS(C)(=O)=O)CCOS(C)(=O)=O)ccc1C=O	> 100 µM	24.6 µM	39 µM	–	36.9 µM	> 100 µM	–	–	15.7 µM	–
NS(=O)(=O)c1cc2c(cc1Cl)NC(CCC(=O)O)=NS2(=O)=O	> 100 µM	–	> 100 µM	> 100 µM	> 100 µM	> 100 µM	> 100 µM	> 100 µM	> 100 µM	> 100 µM
CC1=C[C@@H]2Cc3nc4cc(Cl)ccc4c(N)c3[C@H](C1)C2	31.7 µM	–	10.8 µM	32.5 µM	22.3 µM	25.8 µM	24.3 µM	37.4 µM	31.5 µM	18.3 µM
CCCC(=O)OC1CC(n2cc(F)c(=O)[nH]c2=O)OC1COP(=O)(OCC(Cl)(Cl)Cl)OCC(Cl)(Cl)Cl (stereo not drawn)	–	3.34 µM	> 100 µM	> 100 µM	> 100 µM	> 31.6 µM	> 31.6 µM	> 31.6 µM	> 100 µM	–
O=[N+]([O-])C(/C=C(\Cl)n1nnc2ccccc21)=C(/Cl)n1nnc2ccccc21	–	> 100 µM	> 100 µM	> 100 µM	> 100 µM	> 100 µM	> 100 µM	> 100 µM	> 100 µM	> 100 µM
Oc1ccc([I+]c2ccccc2)cc1O	> 100 µM	64.2 µM	28.9 µM	> 100 µM	> 100 µM	> 100 µM	–	–	–	> 100 µM

Structure (SMILES)	TGI [1]	TGI [2]	TGI [3]	TGI [4]	TGI [5]	TGI [6]	TGI [7]	TGI [8]	TGI [9]	TGI [10]
CCC1(CC)C(=O)NN(C(=O)c2ccccc2)C1=O	> 100 µM	> 100 µM	–	> 100 µM	> 100 µM	> 100 µM	> 100 µM	> 100 µM	> 100 µM	> 100 µM
O=C1c2ccccc2-c2c1c(-c1ccc(F)cc1)nc1ccc3ccccc3c21	> 100 µM	> 100 µM	–	> 100 µM	> 100 µM	> 100 µM	> 100 µM	> 100 µM	> 100 µM	> 100 µM
O=c1c2sc(=S)n(-c3ccc(F)cc3)c2ncn1/N=C/c1ccc(F)cc1F	37.5 µM	> 100 µM	44 µM	87 µM	> 100 µM	43.1 µM	53.7 µM	–	> 100 µM	45.5 µM
CSc1nsc(-c2ccccc2)[s+]1	–	> 100 µM	–	> 100 µM	–	> 100 µM	> 100 µM	–	> 100 µM	> 100 µM
COc1ccc2c(C)cc(=O)oc2c1OC	–	–	–	> 100 µM	> 100 µM	> 100 µM	> 100 µM	–	> 100 µM	–
CC1=NS(=O)(=O)c2ccccc2N1	–	> 100 µM	> 100 µM	> 100 µM	> 100 µM	> 100 µM	> 100 µM	–	> 100 µM	> 100 µM
Cc1cc(C(=O)CCCCOc2ccc(C3=NCCO3)cc2)c(C)n1C	> 100 µM	–	–	98 µM	> 100 µM	> 100 µM	> 100 µM	65.6 µM	–	72.8 µM
CCOC(=O)c1c(C)nc2c3ccccc3c(C#N)c(C)n12	> 100 µM	> 100 µM	> 100 µM	> 100 µM	–	–	51.3 µM	–	> 100 µM	> 100 µM
CC1=NN(c2cccc(Cl)c2)C2(SCC(=O)N2c2nc3ccccc3s2)/C1=C\c1ccccc1O (stereo not drawn)	–	42 µM	46.1 µM	> 100 µM	41.3 µM	64.7 µM	51.3 µM	37.9 µM	–	32.8 µM
COc1cc(NS(C)(=O)=O)ccc1Nc1cc(C)[nH]c2ccc3nccc3c12	> 100 µM	–	> 100 µM	> 100 µM	> 100 µM	> 100 µM	–	> 100 µM	> 100 µM	–
COc1cc(/C=C/C(=O)CC(=O)/C=C/c2ccc(OC(=O)CCCCC3CCSS3)c(OC)c2)ccc1OC(=O)CCCCC1CCSS1 (stereo not drawn)	> 100 µM	–	–	> 100 µM	> 100 µM	> 100 µM	> 100 µM	–	> 100 µM	> 100 µM
Cc1nc(N)c(N2CCN([N+](=O)[O-])CC2)c(=O)[nH]1	> 100 µM	> 100 µM	–	> 100 µM	> 100 µM	> 100 µM	–	> 100 µM	–	–
C=CCSc1nnc2cc(CN3CCCC3)c(-c3ccc(Cl)cc3)nn12	42.4 µM	–	34.3 µM	26.7 µM	59.4 µM	46 µM	55.5 µM	71.4 µM	27.7 µM	31.5 µM
N#Cc1c(-c2ccccc2)/c(=C\Nc2ccc(F)cc2)c(=O)n2c1nc1ccccc12	> 100 µM	> 100 µM	–	64.1 µM	> 100 µM	> 100 µM	> 100 µM	> 100 µM	–	52.3 µM
CCOC(=O)c1ccc(NCC#CCN2CCOCC2)cc1	> 100 µM	–	> 100 µM	> 100 µM	> 100 µM	> 100 µM	> 100 µM	> 100 µM	> 100 µM	> 100 µM
CCOP(=O)(OCC)C(c1ccc(F)cc1)N(C(=O)NC(F)(F)F)c1ccc(OC)cc1 (stereo not drawn)	–	> 100 µM	–	> 100 µM	> 100 µM	> 100 µM	–	–	–	> 100 µM
CSC(=S)N(C)C	> 100 µM	–	> 100 µM	> 100 µM	> 100 µM	> 100 µM	> 100 µM	> 100 µM	> 100 µM	> 100 µM
O=C1NCC2(CCN(CCCC3(c4ccc(F)cc4)OCCO3)CC2)N1c1ccccc1	–	> 100 µM	> 100 µM	> 100 µM	> 100 µM	> 100 µM	–	> 100 µM	> 100 µM	> 100 µM
Cc1ccc2c(c1)C(=O)C1(Cc3ccccc3C1=O)C2 (stereo not drawn)	–	> 100 µM	> 100 µM	> 100 µM	> 100 µM	> 100 µM	> 100 µM	> 100 µM	> 100 µM	> 100 µM
